Assay results reported in patent EP4353711A1, “QUINOLIN-2-YL NITRONES FOR THE TREATMENT AND PREVENTION OF STROKE” (Consejo Superior De Investigaciones Científicas, priority 2022, dated 2024).

System: male C57BL/6J mice
Test: pMCAO stroke model, infarct volume by T2-weighted MRI
Type: in vivo
Conditions: 85 mg/kg QN11 intraperitoneally 15 min after arterial ligature
Description: To study of the effects of QN11 on stroke recovery, administration of the vehicle and QN11 molecule was performed intraperitoneally, to 8-week-old male C57BL/6J mice (Harlan) weighing 25-30 g. All procedures with animals were carried out under a protocol approved by the Ethical Committee of the Spanish National Research Council (CSIC), and recommendations of the European Council. A special effort was made to keep to a minimum necessary the number of animals to achieve adequate significance. For surgery, anaesthesia induction was carried out with 3% isoflurane (in 70% N2O, 30% O2), followed by 2% isoflurane for maintenance during stroke procedure. Rectal temperature was maintained at 36.5 °C with the use of a heating pad. The common branch of the middle cerebral artery was, after craniotomy, exposed and occluded permanently by suture ligation. To ensure a complete artery occlusion during surgery, cortical blood flow was monitored by non-invasive laser Doppler flowmetry, as a quality control, with the aid of a Perimed equipment (PeriFlux System 5000 Stroke Model Monitor, Perimed, Järfälla, Sweden). […] Animals subjected to surgery for longer than 15 min were excluded of the study. Physiological parameters were maintained. […]
MRI is the most commonly used diagnostic tool for stroke. […] All MRI data was analysed using ImageJ software. […]

For `[O-]/[N+](=C\c1ccc2cccc(O)c2n1)Cc1ccccc1` [QN11, (Z)-N-Benzyl-1-(8-hydroxyquinolin-2-yl)methanimine oxide], the “reduction in the percentage of brain infarct volume” value (MRI 48 h after pMCAO, compared with vehicle-treated animals (group b)) was 74,47% and the “infarct volume with regard to the whole brain volume” value (T2WI MRI 48 h after pMCAO, vehicle group b 2.453 %) was 0.6262%.
